Measured values: patent US7026326B2, “Substituted heterocyclic compounds and methods of use” (Amgen Inc., priority 2002, dated 2006)

System: LPS induced TNF release
Test: Lipopolysaccharide-Activated THP1 Cell TNF Production Assay
Format: cell-based
Conditions: Homo sapiens, THP-1; THP1 cells, bacterial LPS, TNF-α secretion at 37° C. for 3 h
Experimental: Lipopolysaccharide-Activated THP1 Cell TNF Production Assay
THP1 cells are resuspended in fresh THP1 media (RPMI 1640, 10% heat-inactivated FBS, 1xPGS, 1XNEAA, plus 30 μM βME) at a concentration of 1E6/mL. One hundred microliters of cells per well are plated in a polystyrene 96-well tissue culture. One microgram per mL of bacterial LPS is prepared in THP1 media and is transferred to the wells. Test compounds are dissolved in 100% DMSO and are serially diluted 3 fold in a polypropylene 96-well microtiter plate (drug plate). HI control and LO control wells contain only DMSO. One microliter of test compound from the drug plate followed by 10 μL of LPS are transferred to the cell plate. The treated cells are induced to synthesize and secrete TNF-α at 37° C. for 3 h. Forty microliters of conditioned media are transferred to a 96-well polypropylene plate containing 110 μL of ECL buffer (50 mM Tris-HCl pH 8.0, 100 mM NaCl, 0.05% Tween 20, 0.05% NaN3 and 1% FBS) supplemented with 0.44 nM MAB610 monoclonal Ab (R&D Systems), 0.34 nM ruthenylated AF210NA polyclonal Ab (R&D Systems) and […] sheep anti-mouse M280 Dynabeads (Dynal). After a 2 h incubation at room temperature with shaking, the reaction is read on the ECL M8 Instrument (IGEN Inc.). A low voltage is applied to the ruthenylated TNF-α immune complexes, which in the presence of TPA (the active component in Origlo), results in a cyclical redox reaction generating light at […]. The amount of secreted TNF-α in the presence of compound compared with that in the presence of DMSO vehicle alone (HI control) is calculated using the formula: % control (POC)=(cpd−average LO)/(average HI−average LO)*100. Data (consisting of POC and inhibitor concentration in μM) is fitted to a 4-parameter equation (y=A+((B−A)/(1+((x/C)^D))), where A is the minimum y (POC) value, B is the maximum y (POC), C is the x (cpd concentration) at the point of inflection and D is the slope factor) using a Levenburg-Marquardt non-linear regression algorithm.

Row | IC50 [µM] | SMILES
1 | ≤ 20 | CC(C)NC[C@H]1CCCN1c1c(Cl)c(-c2ccncc2)c(-c2ccc3ccccc3c2)c(=O)n1C (stereo in doubt) [Example 29, 5-Chloro-6-[2-(isopropylamino-methyl)-pyrrolidin-1-yl]-1-methyl-3-naphthalen-2-yl-1H-[4,4′]bipyridinyl-2-one]
2 | ≤ 20 | CC(C)NC[C@H]1CCCN1c1nc(-c2ccncc2)c(-c2ccc(Cl)cc2)c(=O)n1C [Example 1]
3 | ≤ 20 | CC(C)NC[C@@H]1CCCN1c1nc(-c2ccncc2)c(-c2ccc(Cl)cc2)c(=O)n1C [Example 2]
4 | ≤ 20 | CC(C)NC[C@H]1CCCN1c1nc(-c2ccncc2)c(-c2cccc(Br)c2)c(=O)n1C [Example 4, 5-(3-Bromo-phenyl)-2-[2-(isopropylamino-methyl)-pyrrolidin-1-yl]-3-methyl-6-pyridin-4-yl-3H-pyrimidin-4-one]
5 | ≤ 20 | C=Cc1cccc(-c2c(-c3ccncc3)nc(N3CCC[C@@H]3CNC(C)C)n(C)c2=O)c1 [Example 5, 2-[2-(Isopropylamino-methyl)-pyrrolidin-1-yl]-3-methyl-6-pyridin-4-yl-5-(3-vinyl-phenyl)-3H-pyrimidin-4-one]
6 | ≤ 20 | CC(C)NC[C@H]1CCCN1c1nc(-c2ccncc2)c(-c2cccc(C3CC3)c2)c(=O)n1C [Example 6, 5-(3-Cyclopropyl-phenyl)-2-[2-(isopropylamino-methyl)-pyrrolidin-1-yl]-3-methyl-6-pyridin-4-yl-3H-pyrimidin-4-one]
7 | ≤ 20 | Cc1cccc(-c2c(-c3ccncc3)nc(N3CCC[C@@H]3CNC(C)C)n(C)c2=O)c1 [Example 7, 2-[2-(Isopropylamino-methyl)-pyrrolidin-1-yl]-3-methyl-6-pyridin-4-yl-5-m-tolyl-3H-pyrimidin-4-one]
8 | ≤ 20 | CC(C)NC[C@H]1CCCN1c1nc(-c2ccncc2)c(-c2ccc3ccccc3c2)c(=O)n1C [Example 8, 2-[2-(Isopropylamino-methyl)-pyrrolidin-1-yl]-3-methyl-5-naphthalen-2-yl-6-pyridin-4-yl-3H-pyrimidin-4-one]
9 | ≤ 20 | COC[C@@H]1CCCN1c1nc(-c2ccnc(Cl)c2)c(-c2cccc(C)c2)c(=O)n1C [Example 9, 6-(2-Chloro-pyridin-4-yl)-2-(2-methoxymethyl-pyrrolidin-1-yl)-3-methyl-5-m-tolyl-3H-pyrimidin-4-one]
10 | ≤ 20 | COC[C@@H]1CCCN1c1nc(-c2ccnc(N[C@@H](C)c3ccccc3)c2)c(-c2cccc(C)c2)c(=O)n1C [Example 10, 2-(2-Methoxymethyl-pyrrolidin-1-yl)-3-methyl-6-[2-(1-phenyl-ethylamino)-pyridin-4-yl]-5-m-tolyl-3H-pyrimidin-4-one]
11 | ≤ 20 | C[C@@H](O)CN1CCC(c2cc(-c3ccncc3)c(-c3ccc4ccccc4c3)c(=O)n2C)CC1 [Example 11, 1-(2R-Hydroxy-propyl)-1′-methyl-5′-naphthalen-2-yl-1,2,3,4,5,6-hexahydro-1′H-[4,2′;4′,4″]terpyridin-6′-one]
12 | ≤ 20 | Cn1c(C2CCN(CC(C)(C)O)CC2)cc(-c2ccncc2)c(-c2ccc3ccccc3c2)c1=O [Example 13, 1-(2-Hydroxy-2-methyl-propyl)-1′-methyl-5′-naphthalen-2-yl-1,2,3,4,5,6-hexahydro-1′H-[4,2′;4′,4″]terpyridin-6′-one]
13 | ≤ 20 | CC(C)NCC1CCCN1c1cc(-c2ccncc2)c(-c2ccc3ccccc3c2)nn1 (centres unmarked) [Example 14, Isopropyl-[1-(6-naphthalen-2-yl-5-pyridin-4-yl-pyridazin-3-yl)-pyrrolidin-2-ylmethyl]-amine]
14 | ≤ 20 | Cn1c(C2CNC(CO)C2)cc(-c2ccncc2)c(-c2ccc3ccccc3c2)c1=O (centres unmarked) [Example 15, 6-[5-(Hydroxymethyl)pyrrolidin-3-yl]-1-methyl-3-(2-naphthyl)-4-(4-pyridyl)-hydropyridin-2-one]
15 | ≤ 20 | CC(C)N1CC(c2cc(-c3ccncc3)c(-c3ccc4ccccc4c3)c(=O)n2C)CC1CO (centres unmarked) [Example 16, 6-[5-(hydroxymethyl)-1-(methylethyl)pyrrolidin-3-yl]-1-methyl-3-(2-naphthyl)-4-(4-pyridyl)hydropyridin-2-one]
16 | ≤ 20 | Cn1c(N2CCCC2CO)cc(-c2ccncc2)c(-c2ccc(Cl)cc2)c1=O (centres unmarked) [Example 17, 3-(4-chlorophenyl)-6-[2-(hydroxymethyl)pyrrolidinyl]-1-methyl-4-(4-pyridyl)-hydropyridin-2-one]
17 | ≤ 20 | Cn1c(C2CCN(C[C@@H](Cc3ccccc3)NC(=O)OC(C)(C)C)CC2)cc(-c2ccncc2)c(-c2ccc3ccccc3c2)c1=O [Example 18, [(1R)-Benzyl-2-(1′-methyl-5′-naphthalen-2-yl-6′-oxo-3,4,5,6,1′,6′-hexahydro-2H-[4,2′;4′,4″]terpyridin-1-yl)-ethyl]-carbamic acid tert-butyl ester]
18 | ≤ 20 | Cn1c(C2CCN(C[C@H](N)Cc3ccccc3)CC2)cc(-c2ccncc2)c(-c2ccc3ccccc3c2)c1=O [Example 19, 1-{(2R)-Amino-3-phenyl-propyl}-1′-methyl-5′-naphthalen-2-yl-1,2,3,4,5,6-hexahydro-1′H-[4,2′;4′,4″]terpyridin-6′-one]
19 | ≤ 20 | CC(C)N[C@H](Cc1ccccc1)CN1CCC(c2cc(-c3ccncc3)c(-c3ccc4ccccc4c3)c(=O)n2C)CC1 [Example 20, 1-{(2R)-Isopropylamino-3-phenyl-propyl}-1′-methyl-5′-naphthalen-2-yl-1,2,3,4,5,6-hexahydro-1′H-[4,2′;4′,4″]terpyridin-6′-one]
20 | ≤ 20 | Cn1c(C2CCN(C[C@H](Cc3ccccc3)NC(=O)OC(C)(C)C)CC2)cc(-c2ccncc2)c(-c2ccc3ccccc3c2)c1=O [Example 21, [(1S)-Benzyl-2-(1′-methyl-5′-naphthalen-2-yl-6′-oxo-3,4,5,6,1′,6′-hexahydro-2H-[4,2′;4′,4″]terpyridin-1-yl)-ethyl]-carbamic acid tert-butyl ester]
21 | ≤ 20 | Cn1c(C2CCN(C[C@@H](N)Cc3ccccc3)CC2)cc(-c2ccncc2)c(-c2ccc3ccccc3c2)c1=O [Example 22, 1-{(2S)-Amino-3-phenyl-propyl}-1′-methyl-5′-naphthalen-2-yl-1,2,3,4,5,6-hexahydro-1′H-[4,2′;4′,4″]terpyridin-6′-one]
22 | ≤ 20 | CC(C)N[C@@H](Cc1ccccc1)CN1CCC(c2cc(-c3ccncc3)c(-c3ccc4ccccc4c3)c(=O)n2C)CC1 [Example 23, 1-{(2S)-Isopropylamino-3-phenyl-propyl}-1′-methyl-5′-naphthalen-2-yl-1,2,3,4,5,6-hexahydro-1′H-[4,2′;4′,4″]terpyridin-6′-one]
23 | ≤ 20 | Cn1c(C2CCN(CCNC(=O)OC(C)(C)C)C2)cc(-c2ccncc2)c(-c2ccc3ccccc3c2)c1=O (centres unmarked) [Example 24, {2-[3-(1-Methyl-5-naphthalen-2-yl-6-oxo-1,6-dihydro-[4,4′]bipyridinyl-2-yl)-pyrrolidin-1-yl]-ethyl}-carbamic acid tert-butyl ester]
24 | ≤ 20 | CC(O)CN1CCC(c2cc(-c3ccncc3)c(-c3ccc4ccccc4c3)c(=O)n2C)C1 (centres unmarked) [Example 25, 6-[1-(2-Hydroxy-propyl)-pyrrolidin-3-yl]-1-methyl-3-naphthalen-2-yl-1H-[4,4′]bipyridinyl-2-one]
25 | ≤ 20 | Cn1c(C2CCN(CC(C)(C)O)C2)cc(-c2ccncc2)c(-c2ccc3ccccc3c2)c1=O (centres unmarked) [Example 26, 6-[1-(2-Hydroxy-2-methyl-propyl)-pyrrolidin-3-yl]-1-methyl-3-naphthalen-2-yl-1H-[4,4′]bipyridinyl-2-one]
26 | ≤ 20 | Cn1c(C2CCCN2CCNC(=O)OC(C)(C)C)cc(-c2ccncc2)c(-c2ccc3ccccc3c2)c1=O (centres unmarked) [Example 27, {2-[2-(1-Methyl-5-naphthalen-2-yl-6-oxo-1,6-dihydro-[4,4′]bipyridinyl-2-yl)-pyrrolidin-1-yl]-ethyl}-carbamic acid tert-butyl ester]
27 | ≤ 20 | Cn1c(C2CCCN2CCN)cc(-c2ccncc2)c(-c2ccc3ccccc3c2)c1=O (centres unmarked) [Example 28, 6-[1-(2-Amino-ethyl)-pyrrolidin-2-yl]-1-methyl-3-naphthalen-2-yl-1H-[4,4′]bi-pyridinyl-2-one]
28 | ≤ 20 | CC(C)NC[C@H]1CCCN1c1cc(-c2ccncc2)c(-c2ccc3ccccc3c2)c(=O)n1C [Example 30, 6-[2-(Isopropylamino-methyl)-pyrrolidin-1-yl]-1-methyl-3-naphthalen-2-yl-1H-4[4,4′]bipyridinyl-2-one]
29 | ≤ 20 | CC(C)NCC1CCCN1c1cc(-c2ccncc2)c(-c2ccc(Cl)cc2)c(=O)n1C (centres unmarked) [Example 31, 3-(4-Chlorophenyl)-1-methyl-6-(2-{[(methylethyl)amino]methyl}pyrrolidinyl)-4-(4-pyridyl)hydropyridin-2-one]
